Counter-ions that a name gives are not always drawn. Like-named read-outs stand apart in the source and are kept apart here.
Assays:
[1] = tested on: Plasmodium falciparum 3D7 (Pf3D7); experiment: In vitro anti-malarial activity using SYBR Green I nucleic acid dye; format: cell-based; settings: Plasmodium falciparum, read-out: IC50 of Pf3D7
Description: (§1) The drug-sensitive strain of P. falciparum 3D7 (Pf3D7) was obtained from the Department of Science, Monash University, Malaysia and cultured as previously described. The artemisinin-resistant strain of P. falciparum IPC5202 (Pf5202) was obtained from BEI Resources and cultured as mentioned in the product sheet. Both strains were maintained in sealed flask at 37 °C in a humidified atmosphere of 5% O2, 5% CO2 and 90% N2. All buffer stock solutions for biological assays were autoclaved at 121 °C for 15 min.
(§2) Previously reported anti-malarial assay was used with slight modification using 1% parasitaemia (ring-stage) and 5% haematocrit treated with test compounds at increasing concentration and incubated for 72 h at 37 °C [21–23]. After the incubation, the assay was terminated by freeze/thaw cycle (− 80 °C overnight before thawing for 2 h) before the addition of lysis buffer containing SYBR Green I dye into each well and mixed thoroughly using the belly dancer for 30 min in the dark. Chloroquine diphosphate salt and artemisinin were used as standard drugs. The fluorescence signal was quantified at 485 nm excitation wavelength and 528 nm emission wavelength. IC50 values of each test compound was determined from a dose response curve by non-linear regression analysis.

[2] = tested on: Plasmodium falciparum IPC5202 (Pf5202); experiment: as above; format: cell-based; settings: for IC50: Plasmodium falciparum, read-out: IC50 of Pf5202; for Drop in efficacy/potency towards Pf5202 relative to Pf3D7: ratio of IC50 values
Description: as §1, §2

[3] = PNDA assay of •OH radicals from reaction with H2O2; settings: equimolar test compound with excess H2O2
Description: A previously reported spectrometric assay using PNDA was used to quantify the amount of reactive oxygen species (ROS), viz. •OH radicals, produced by the reaction of metal(II) complexes with hydrogen peroxide in borate buffer at pH 7.5 [24–26]. The percentage of PNDA bleaching and the concentration of •OH produced were determined.

Pf3D7 = experiment: Intracellular ROS level using DCFH-DA; format: cell-based, Plasmodium falciparum; settings: positive control
Description: (§3) After incubation, packed cells were washed with phosphate buffer saline (PBS) solution. […] The data was expressed as fold change between amount of ROS produced by treated P. falciparum against untreated P. falciparum. Normalization was done with the percentage of parasite viability obtained at each condition. Hydrogen peroxide was used as positive control.

Pf5202 = experiment: Intracellular ROS level using DCFH-DA; format: cell-based, Plasmodium falciparum; settings: positive control
Description: as §3

## c1cc(-c2ccncc2)ccn1 [4,4′-bipy, 4,4′-bipyridine]
[1]; 3D7, 72 h incubation
  IC50: > 100 µM
[2]; 72 h incubation
  IC50: > 100 µM
[3]
  Generation of ·OH radicals (in words): did not generate any ·OH radicals

## C[C@@H]1CC[C@H]2[C@@H](C)C(=O)O[C@@H]3O[C@@]4(C)CC[C@@H]1[C@]32OO4 [ART, Artemisinin]
[1]; 3D7, 72 h incubation
  IC50: 0.04 ± 0.01 µM
[2]; 72 h incubation
  IC50: > 100 µM
[2]
  Drop in efficacy/potency towards Pf5202 relative to Pf3D7: more than 3000 ×

## CCN(CC)CCCC(C)Nc1ccnc2cc(Cl)ccc12 (stereo not drawn) [CQ, Chloroquine diphosphate salt]
[1]; 3D7, 72 h
  IC50: 0.03 ± 0.01 µM
[2]; 72 h
  IC50: > 100 µM
[2]
  Drop in efficacy/potency towards Pf5202 relative to Pf3D7: more than 3000 ×

## OO [Complex H2O2, Hydrogen peroxide, reference compound]
Pf3D7; 24 h, 8 µM
  fold change in ROS: 0.90 ± 0.37 fold
Pf3D7; 24 h, 40 µM
  fold change in ROS: 1.34 ± 0.67 fold
Pf3D7; 24 h, 200 µM
  fold change in ROS: 1.28 ± 0.62 fold
Pf3D7; 24 h, 1000 µM
  fold change in ROS: 1.77 ± 0.85 fold
Pf3D7; 48 h, 8 µM
  fold change in ROS: 2.97 ± 0.57 fold
Pf3D7; 48 h, 40 µM
  fold change in ROS: 3.55 ± 0.9 fold
Pf3D7; 48 h, 200 µM
  fold change in ROS: 4.61 ± 0.15 fold
Pf3D7; 48 h, 1000 µM
  fold change in ROS: 5.75 ± 0.76 fold
Pf3D7; 72 h, 8 µM
  fold change in ROS: 0.25 ± 0.08 fold
Pf3D7; 72 h, 40 µM
  fold change in ROS: 0.34 ± 0.12 fold
Pf3D7; 72 h, 200 µM
  fold change in ROS: 0.49 ± 0.22 fold
Pf3D7; 72 h, 1000 µM
  fold change in ROS: 1.00 ± 0.06 fold
Pf5202; 24 h, 8 µM
  fold change in ROS: 1.10 ± 0.04 fold
Pf5202; 24 h, 40 µM
  fold change in ROS: 1.16 ± 0.13 fold
Pf5202; 24 h, 200 µM
  fold change in ROS: 1.08 ± 0.18 fold
Pf5202; 24 h, 1000 µM
  fold change in ROS: 1.15 ± 0.22 fold
Pf5202; 48 h, 8 µM
  fold change in ROS: 1.78 ± 0.16 fold
Pf5202; 48 h, 40 µM
  fold change in ROS: 1.54 ± 0.28 fold
Pf5202; 48 h, 200 µM
  fold change in ROS: 1.41 ± 0.16 fold
Pf5202; 48 h, 1000 µM
  fold change in ROS: 1.68 ± 0.28 fold
Pf5202; 72 h, 8 µM
  fold change in ROS: 1.82 ± 0.15 fold
Pf5202; 72 h, 40 µM
  fold change in ROS: 1.17 ± 0.36 fold
Pf5202; 72 h, 200 µM
  fold change in ROS: 2.06 ± 0.25 fold
Pf5202; 72 h, 1000 µM
  fold change in ROS: 3.71 ± 0.14 fold
